Experiment: Study 2 blood chemistry
Format: in vivo, human
Details: for Aspartate Aminotransferase / Gamma-glutamyl: in U/L (unit assumed)
Method: Study 2 design. Study 2 was conducted similar to study 1 with the following modifications. In study 2, plasma levels of HMB were measured for 1440 min (24 h) and total urine collection was also performed for measurement of urinary HMB excretion during this period. After the 180 min blood sample, the subjects were allowed to leave the laboratory and were instructed to return to the laboratory for additional blood samples at 360, 720, and 1440 min after the ingestion of the supplement. As in study 1, each subject took each of the treatments with at least a one week washout period between treatments. Samples were again stored frozen at −70° C. for analysis of plasma and urinary HMB concentrations. Pre-ingestion, 180 min and 1440 min blood samples were again assayed for the same measurements already for study 1. Subjects were provided with a standardized lunch after the 180 min blood sampling and instructed to eat this at approximately 240 min post ingestion. Following the 720 min blood sample, subjects were instructed to eat a normal evening meal before 10 pm. Subjects reported back to the laboratory the following morning for the fasted 1440 min blood sample. A urine collection container was provided and subjects collected all urine produced during the experimental 24 h experimental period. The urine was stored refrigerated when not being collected. Urine volumes were measured and samples of the total urine collection were taken and stored frozen at −70° C. until analyzed for HMB.
The data were analyzed using a crossover design with Proc GLM in SAS. (45) For the timed sampling of plasma HMB a repeated measures polynomial model was used. The model included subject, order, and treatment main effects and time by treatment interaction where appropriate. For other parameters Proc GLM was also used with subject, order, and treatment main effects and the p values are reported for the treatment main effect. Statistical significance was determined for p<0.05 and a trend was determined for 0.05<p<0.10.

Question: Which “A:G Ratio” value (After (24 h)) does the source give for `CC(C)(O)CC(=O)O` [HMB-Acid Gel Swallow, 3-hydroxy-3-methylbutyric acid] here?
Answer: The value was 1.8 ± 0.1.

Question: And the “Alanine Aminotransferase” value (After (24 h))?
Answer: Its value is 16.4 ± 1.7 IU/L.

Question: And the Albumin (After (24 h))?
Answer: The Albumin was 4.3 ± 0.1 g/dL.

Question: What about the “Alkaline Phosphatase” value (After (24 h)) of the same compound?
Answer: The value was 74.1 ± 7.6 IU/L.

Question: What about the “Blood Urea Nitrogen” value (After (24 h)) of the same compound?
Answer: The value was 13.9 ± 1.4 mg/dL.

Question: What about the CO2 (After (24 h)) of the same compound?
Answer: The CO2 was 27.8 ± 0.9 mEq/L.

Question: And the Chloride (After (24 h))?
Answer: Its Chloride is 102.8 ± 0.7 mEq/L.

Question: And the “Cholesterol Ratio” value (After (24 h))?
Answer: Its value is 3.2 ± 0.2.

Question: What about the Creatinine (After (24 h)) of the same compound?
Answer: The Creatinine was 1.0 ± 0.1 mg/dL.

Question: What about the “Direct Bilirubin” value (After (24 h)) of the same compound?
Answer: The value was 0.1 ± 0.04 mg/dL.

Question: And the Globulin (After (24 h))?
Answer: Its Globulin is 2.4 ± 0.2 g/dL.

Question: And the Glucose (After (24 h))?
Answer: Its Glucose is 79.9 ± 1.9 mg/dL.

Question: What about the HDL (After (24 h)) of the same compound?
Answer: The HDL was 56.4 ± 2.9 mg/dL.

Question: What about the Iron (After (24 h)) of the same compound?
Answer: The Iron was 53.8 ± 10.8 µg/dL.

Question: And the “Iron Binding Capacity” value (After (24 h))?
Answer: The value was 395.1 ± 34.7 µg/dL.

Question: And the “Iron Saturation” value (After (24 h))?
Answer: The value was 16.9 ± 4.6%.

Question: What about the LDL (After (24 h)) of the same compound?
Answer: The LDL was 96.1 ± 8.1 mg/dL.

Question: What about the “Lactate Dehydrogenase” value (After (24 h)) of the same compound?
Answer: The value was 136.6 ± 11.6 IU/L.

Question: What about the Phosphorus (After (24 h)) of the same compound?
Answer: The Phosphorus was 4.5 ± 0.2 mg/dL.

Question: What about the Potassium (After (24 h)) of the same compound?
Answer: The Potassium was 4.7 ± 0.2 mEq/L.

Question: And the Protein (After (24 h))?
Answer: Its Protein is 6.7 ± 0.2 g/dL.

Question: What about the Sodium (After (24 h)) of the same compound?
Answer: Its Sodium is 141.5 ± 0.9 mEq/L.

Question: And the “Total Bilirubin” value (After (24 h))?
Answer: The value was 0.5 ± 0.1 mg/dL.

Question: What about the “Total Cholesterol” value (After (24 h)) of the same compound?
Answer: Its value is 176.9 ± 11.8 mg/dL.

Question: And the Triglycerides (After (24 h))?
Answer: Its Triglycerides is 121.4 ± 22.7 mg/dL.

Question: What about the UIBC (After (24 h)) of the same compound?
Answer: Its UIBC is 335.1 ± 42.1 µg/dL.

Question: And the “Uric Acid” value (After (24 h))?
Answer: The value was 4.8 ± 0.3 mg/dL.

Question: And the “Aspartate Aminotransferase” value (After (24 h))?
Answer: Its value is 21.3 ± 0.7.

Question: What about the Gamma-glutamyl (After (24 h)) of the same compound?
Answer: Its Gamma-glutamyl is 14.0 ± 1.0.

Question: What about the “A:G Ratio” value (Before) of the same compound?
Answer: Its value is 1.9 ± 0.2.

Question: What about the “Alanine Aminotransferase” value (Before) of the same compound?
Answer: The value was 16.4 ± 1.6 IU/L.

Question: And the Albumin (Before)?
Answer: Its Albumin is 4.1 ± 0.1 g/dL.

Question: What about the “Alkaline Phosphatase” value (Before) of the same compound?
Answer: Its value is 64.8 ± 7.3 IU/L.

Question: And the “Blood Urea Nitrogen” value (Before)?
Answer: Its value is 14.5 ± 1.4 mg/dL.

Question: What about the CO2 (Before) of the same compound?
Answer: Its CO2 is 24.8 ± 1.0 mEq/L.

Question: What about the Chloride (Before) of the same compound?
Answer: Its Chloride is 103.1 ± 0.8 mEq/L.

Question: What about the “Cholesterol Ratio” value (Before) of the same compound?
Answer: Its value is 3.2 ± 0.2.

Question: And the Creatinine (Before)?
Answer: Its Creatinine is 1.0 ± 0.1 mg/dL.

Question: And the “Direct Bilirubin” value (Before)?
Answer: Its value is 0.1 ± 0.03 mg/dL.

Question: What about the Globulin (Before) of the same compound?
Answer: Its Globulin is 2.3 ± 0.2 g/dL.

Question: And the Glucose (Before)?
Answer: Its Glucose is 74.1 ± 2.0 mg/dL.

Question: And the HDL (Before)?
Answer: The HDL was 51.4 ± 2.8 mg/dL.

Question: What about the Iron (Before) of the same compound?
Answer: Its Iron is 68.0 ± 13.4 µg/dL.

Question: And the “Iron Binding Capacity” value (Before)?
Answer: Its value is 378.6 ± 32.1 µg/dL.

Question: And the “Iron Saturation” value (Before)?
Answer: Its value is 20.3 ± 5.0%.

Question: And the LDL (Before)?
Answer: Its LDL is 90.8 ± 7.0 mg/dL.

Question: What about the “Lactate Dehydrogenase” value (Before) of the same compound?
Answer: Its value is 155.9 ± 13.9 IU/L.

Question: What about the Phosphorus (Before) of the same compound?
Answer: The Phosphorus was 4.2 ± 0.2 mg/dL.

Question: And the Potassium (Before)?
Answer: The Potassium was 4.1 ± 0.1 mEq/L.

Question: And the Protein (Before)?
Answer: Its Protein is 6.4 ± 0.1 g/dL.

Question: And the Sodium (Before)?
Answer: The Sodium was 139.9 ± 0.7 mEq/L.

Question: What about the “Total Bilirubin” value (Before) of the same compound?
Answer: The value was 0.5 ± 0.1 mg/dL.

Question: What about the “Total Cholesterol” value (Before) of the same compound?
Answer: The value was 164.6 ± 10.5 mg/dL.

Question: And the Triglycerides (Before)?
Answer: Its Triglycerides is 112.6 ± 18.4 mg/dL.

Question: What about the UIBC (Before) of the same compound?
Answer: Its UIBC is 310.6 ± 42.4 µg/dL.

Question: What about the “Uric Acid” value (Before) of the same compound?
Answer: Its value is 4.7 ± 0.1 mg/dL.

Question: What about the “A:G Ratio % Change” value (Before to After) of the same compound?
Answer: The value was −2.6%.

Question: And the “Alanine Aminotransferase % Change” value (Before to After)?
Answer: The value was 0.0%.

Question: And the “Albumin % Change” value (Before to After)?
Answer: The value was 4.5%.

Question: What about the “Alkaline Phosphatase % Change” value (Before to After) of the same compound?
Answer: The value was 14.5%.

Question: And the “Aspartate Aminotransferase % Change” value (Before to After)?
Answer: Its value is −8.6%.

Question: What about the “Blood Urea Nitrogen % Change” value (Before to After) of the same compound?
Answer: Its value is −4.3%.

Question: And the “CO2 % Change” value (Before to After)?
Answer: The value was 12.1%.

Question: And the “Chloride % Change” value (Before to After)?
Answer: The value was −0.4%.

Question: And the “Cholesterol Ratio % Change” value (Before to After)?
Answer: Its value is −2.3%.

Question: What about the “Creatinine % Change” value (Before to After) of the same compound?
Answer: Its value is −0.6%.

Question: What about the “Direct Bilirubin % Change” value (Before to After) of the same compound?
Answer: The value was 6.0%.

Question: And the “Gamma-glutamyl % Change” value (Before to After)?
Answer: Its value is 5.7%.

Question: And the “Globulin % Change” value (Before to After)?
Answer: The value was 6.0%.

Question: And the “Glucose % Change” value (Before to After)?
Answer: Its value is 7.8%.

Question: And the “HDL % Change” value (Before to After)?
Answer: Its value is 9.7%.

Question: What about the “Iron % Change” value (Before to After) of the same compound?
Answer: The value was −21.0%.

Question: And the “Iron Binding Capacity % Change” value (Before to After)?
Answer: The value was 4.4%.

Question: What about the “Iron Saturation % Change” value (Before to After) of the same compound?
Answer: Its value is −16.7%.

Question: What about the “LDL % Change” value (Before to After) of the same compound?
Answer: The value was 5.9%.

Question: What about the “Lactate Dehydrogenase % Change” value (Before to After) of the same compound?
Answer: Its value is −12.3%.

Question: What about the “Phosphorus % Change” value (Before to After) of the same compound?
Answer: Its value is 6.2%.

Question: What about the “Potassium % Change” value (Before to After) of the same compound?
Answer: Its value is 14.0%.

Question: What about the “Protein % Change” value (Before to After) of the same compound?
Answer: Its value is 5.1%.

Question: What about the “Sodium % Change” value (Before to After) of the same compound?
Answer: Its value is 1.2%.

Question: What about the “Total Bilirubin % Change” value (Before to After) of the same compound?
Answer: The value was 2.6%.

Question: What about the “Total Cholesterol % Change” value (Before to After) of the same compound?
Answer: The value was 7.4%.

Question: What about the “Triglycerides % Change” value (Before to After) of the same compound?
Answer: Its value is 7.8%.

Question: What about the “UIBC % Change” value (Before to After) of the same compound?
Answer: Its value is 7.9%.

Question: What about the “Uric Acid % Change” value (Before to After) of the same compound?
Answer: Its value is 1.9%.

Question: And the “Aspartate Aminotransferase” value (Before)?
Answer: The value was 23.3 ± 0.9.

Question: And the Gamma-glutamyl (Before)?
Answer: The Gamma-glutamyl was 13.3 ± 1.2.

From US20210113501A1, “METHOD OF ADMINISTERING BETA-HYDROXY-BETA-METHYLBUTYRATE (HMB)” (Metabolic Technologies, Inc., priority 2009, published 2021)
